Where two headings read alike, the source gives them in different places.
Conditions: disulfide bond

Question: For `COc1ccc(C[C@@H]2NC(=O)CC(C)(C)SSC[C@@H](C(=O)N3CCC[C@H]3C(=O)N[C@@H](CCCNC(=N)N)C(=O)NCC(N)=O)NC(=O)[C@H](CC(N)=O)NC(=O)[C@H](CCC(N)=O)NC(=O)[C@H](Cc3ccccc3)NC2=O)cc1`, which ring closure, conversion (from HSC(Me)2CH2CO-Tyr(Me)-Phe-Gln-Asn-Cys-Pro-Arg-Gly-NH2, 20-membered ring, trans-[Pt(en)2Cl2]2+) is on record?
Answer: Its ring closure, conversion is 97%.

Question: Which ring closure, conversion (from Ac-Cys-Gly-Pro-Cys-NH2, 14-membered ring, trans-[Pt(en)2Cl2]2+) does the source give for `CC(=O)N[C@H]1CSSC[C@@H](C(N)=O)NC(=O)[C@@H]2CCCN2C(=O)CNC1=O` [Ac-Cys-Gly-Pro-Cys-NH2] here?
Answer: Its ring closure, conversion is 100%.

Question: For `CC(=O)N[C@H]1CSSC[C@@H](C(N)=O)NC(=O)[C@H](C)NC(=O)[C@H](C)NC(=O)[C@H](Cc2ccccc2)NC(=O)[C@@H]2CCCN2C1=O` [Ac-Cys-Pro-Phe-Ala-Ala-Cys-NH2], which ring closure, conversion (from Ac-Cys-Pro-Phe-Ala-Ala-Cys-NH2, 20-membered ring, trans-[Pt(en)2Cl2]2+) is on record?
Answer: Its ring closure, conversion is 100%.

Question: For `CC(=O)N[C@H]1CSSC[C@@H](C(N)=O)NC(=O)[C@H](Cc2ccccc2)NC(=O)[C@@H]2CCCN2C1=O` [Ac-Cys-Pro-Phe-Cys-NH2], which ring closure, conversion (from Ac-Cys-Pro-Phe-Cys-NH2, 14-membered ring, trans-[Pt(en)2Cl2]2+) is on record?
Answer: Its ring closure, conversion is 97%.

Question: With `CC(=O)N[C@@H](CCCCN)C(=O)N1CCC[C@H]1C(=O)N[C@H](C(=O)N[C@H]1CSSC[C@@H](C(=O)N[C@@H](CCCNC(=N)N)C(=O)N[C@@H](CCCCN)C(=O)N[C@H](C(N)=O)[C@@H](C)O)NC(=O)[C@H](Cc2ccccc2)NC(=O)[C@@H]2CCCN2C1=O)[C@@H](C)O` [Ac-Lys-Pro-Thr-Cys-Pro-Phe-Cys-Arg-Lys-Thr-NH2] as the compound, how does the ring closure, conversion (from Ac-Lys-Pro-Thr-Cys-Pro-Phe-Cys-Arg-Lys-Thr-NH2, 14-membered ring, trans-[Pt(en)2Cl2]2+) read?
Answer: Its ring closure, conversion is 100%.

Question: Which ring closure, conversion (from Ac-Pro-Thr-Cys-Pro-Phe-Cys-Arg-Lys-NH2, 14-membered ring, trans-[Pt(en)2Cl2]2+) does the source give for `CC(=O)N1CCC[C@H]1C(=O)N[C@H](C(=O)N[C@H]1CSSC[C@@H](C(=O)N[C@@H](CCCNC(=N)N)C(=O)N[C@@H](CCCCN)C(N)=O)NC(=O)[C@H](Cc2ccccc2)NC(=O)[C@@H]2CCCN2C1=O)[C@@H](C)O` [Ac-Pro-Thr-Cys-Pro-Phe-Cys-Arg-Lys-NH2] here?
Answer: Its ring closure, conversion is 100%.

Question: With `CC[C@H](C)[C@H](NC(=O)[C@H](CC(=O)O)NC(=O)[C@@H](NC(C)=O)[C@@H](C)O)C(=O)N[C@H](C(=O)N[C@H]1CSSC[C@@H](C(=O)N[C@@H](Cc2c[nH]cn2)C(=O)N[C@@H](CCCCN)C(=O)N[C@@H](CC(C)C)C(=O)N[C@@H](Cc2c[nH]cn2)C(N)=O)NC(=O)[C@H](Cc2ccc(O)cc2)NC(=O)CNC1=O)[C@@H](C)O` [Ac-Thr-Asp-Ile-Thr-Cys-Gly-Tyr-Cys-His-Lys-Leu-His-NH2] as the compound, how does the ring closure, conversion (from Ac-Thr-Asp-Ile-Thr-Cys-Gly-Tyr-Cys-His-Lys-Leu-His-NH2, 14-membered ring, trans-[Pt(en)2Cl2]2+) read?
Answer: The ring closure, conversion was 100%.

Question: For `CC(=O)N[C@H](C(=O)N[C@H]1CSSC[C@@H](C(=O)N[C@@H](CCCNC(=N)N)C(N)=O)NC(=O)[C@H](Cc2ccccc2)NC(=O)[C@@H]2CCCN2C1=O)[C@@H](C)O` [Ac-Thr-Cys-Pro-Phe-Cys-Arg-NH2], which ring closure, conversion (from Ac-Thr-Cys-Pro-Phe-Cys-Arg-NH2, 14-membered ring, trans-[Pt(en)2Cl2]2+) is on record?
Answer: Its ring closure, conversion is 100%.

Question: Which ring closure, conversion (from H-Arg-Pro-Cys-Pro-Gln-Cys-Phe-Tyr-Pro-Leu-Met-NH2, 14-membered ring) does the source give for `CSCC[C@H](NC(=O)[C@H](CC(C)C)NC(=O)[C@@H]1CCCN1C(=O)[C@H](Cc1ccc(O)cc1)NC(=O)[C@H](Cc1ccccc1)NC(=O)[C@@H]1CSSC[C@H](NC(=O)[C@@H]2CCCN2C(=O)[C@@H](N)CCCNC(=N)N)C(=O)N2CCC[C@H]2C(=O)N[C@@H](CCC(N)=O)C(=O)N1)C(N)=O` [H-Arg-Pro-Cys-Pro-Gln-Cys-Phe-Tyr-Pro-Leu-Met-NH2] here?
Answer: Its ring closure, conversion is 99%.

Question: Which ring closure, conversion (from H-Cys-Tyr-Phe-Gln-Asn-Cys-Pro-Arg-Gly-NH2, 20-membered ring, trans-[Pt(en)2Cl2]2+) does the source give for `N=C(N)NCCC[C@H](NC(=O)[C@@H]1CCCN1C(=O)[C@@H]1CSSC[C@H](N)C(=O)N[C@@H](Cc2ccc(O)cc2)C(=O)N[C@@H](Cc2ccccc2)C(=O)N[C@@H](CCC(N)=O)C(=O)N[C@@H](CC(N)=O)C(=O)N1)C(=O)NCC(N)=O` [arginine-vasopressin] here?
Answer: Its ring closure, conversion is 100%.

Question: For `CC[C@H](C)[C@@H]1NC(=O)[C@H](Cc2ccc(O)cc2)NC(=O)[C@@H](N)CSSC[C@@H](C(=O)N2CCC[C@H]2C(=O)N[C@@H](CC(C)C)C(=O)NCC(N)=O)NC(=O)[C@H](CC(N)=O)NC(=O)[C@H](CCC(N)=O)NC1=O` [oxytocin], which ring closure, conversion (from H-Cys-Tyr-Ile-Gln-Asn-Cys-Pro-Leu-Gly-NH2, 20-membered ring, trans-[Pt(en)2Cl2]2+) is on record?
Answer: Its ring closure, conversion is 98%.

Question: With `NC(=O)CC[C@@H]1NC(=O)[C@H](Cc2ccccc2)NC(=O)[C@H](Cc2ccc(O)cc2)NC(=O)[C@@H](N)CSSC[C@@H](C(=O)O)NC(=O)[C@H](CC(N)=O)NC1=O` [pressinoic acid] as the compound, how does the ring closure, conversion (from H-Cys-Tyr-Phe-Gln-Asn-Cys-OH, 20-membered ring, trans-[Pt(en)2Cl2]2+) read?
Answer: The ring closure, conversion was 100%.

Question: Which ring closure, conversion (the molecule shown is the open-chain precursor, 53-membered ring, trans-[Pt(en)2Cl2]2+, phosphate buffer pH 6.0, 0.04 mM) does the source give for “H-Cys-Phe-Gly-Ser-Arg-Ile-Asp-Arg-Ile-Gly-Ala-Gln-Ser-Gly-Met-Gly-Cys-Gly-Arg-Phe-OH” here?
Answer: Its ring closure, conversion is 100%.

Question: For somatostatin, which ring closure, conversion (38-membered ring) is on record?
Answer: Its ring closure, conversion is 99%.

— patent US6686443
